These are literature values, as cited in US20220273645A1, “NALTREXONE FORMULATION” (INTAS PHARMACEUTICALS LTD., priority 2019, published 2022).

Data set [1] concerns children with moderate to severe Crohn's disease. Conditions: sole therapy in children with moderate-to-severe Crohn's disease.
Data set [2] concerns Crohn's disease. As to conditions: low dose; versus other standard therapy.

In the case of `O=C1CC[C@@]2(O)[C@H]3Cc4ccc(O)c5c4[C@@]2(CCN3CC2CC2)[C@H]1O5` [low dose naltrexone, (4R,4aS,7aR,12bS)-3-(cyclopropylmethyl)-4a,9-dihydroxy-2,4,5,6,7a,13-hexahydro-1H-4,12-methano benzofuro[3,2-e]isoquinoline-7-one], the “tolerability / serious adverse events” value in data set [1] is reported as “well tolerated without any serious adverse events”. The “safety and effectiveness for the treatment of Crohn's disease” value in data set [2] is “safe, effective”.
